For 6 compounds, solubility in water and MIC results are on record in US20090239749A1, “Biocidal compositions” (priority 2006, published 2009).

Converted amounts (≈) assume the structure as drawn.

The conditions of series [1]: cited from earlier work.
The next series deals with Candida albicans (CA). Description: Minimum Inhibitory Concentration (MIC) test in YEME media, 96 well plate. The series is classed as cell-based. As for the experimental part: These materials produced according to Examples 4-6 were examined for their biocidal efficacy by following a standardised Minimum Inhibitory Concentration (MIC) test. The test consisted of known number of cells of a strain of Candida albicans (CA) in YEME (yeast extract malt extract media), inoculating concentrations of the active material and blanks contained in a 96 well plate. The plates were incubated at 37° C. overnight, and then examined with a UV plate reader at a wavelength of 550 nm.
Equivalent experiments were also conducted to determine the MIC for the biocide active dissolved in a water miscible solvent. In these cases the “blank” reference material was simply a sample of the solvent containing no active compound.
All experiments were repeated 4 times.
All experiments were conducted in YEME media against a CA culture.

The MIC is the lowest concentration found to suppress growth.

`N#Cc1c(Cl)c(Cl)c(Cl)c(C#N)c1Cl` [Chlorothalonil, 2,4,5,6-tetrachloroisophthalonitrile]: the solubility in water in series [1] is around 0.6 µg/mL (≈ 2.26 µM).

Turning to `CO/C=C(/C(=O)OC)c1ccccc1Oc1cc(Oc2ccccc2C#N)ncn1` [Azoxystrobin, methyl(E)-2-{2-[6-(2-cyanophenoxy)pyrimidin-4-yloxy]phenyl}-3-methoxyacrylate], in series [1], the solubility in water was around 6 µg/mL (≈ 14.9 µM).

With `Oc1cc(Cl)ccc1Oc1ccc(Cl)cc1Cl` [Triclosan, 5-chloro-2-(2,4-dichlorophenoxy)-phenol], the solubility in water in series [1] is 17 µg/mL (≈ 58.7 µM).

For `CC(=O)N1CCN(c2ccc(OCC3COC(Cn4ccnc4)(c4ccc(Cl)cc4Cl)O3)cc2)CC1` (stereo not shown) [Ketoconazole, acetyl-dichlorophenyl-imidazole], in the series with Candida albicans (CA) (ketoconazole, initial concentration 0.15 mg/ml active, incubated overnight 37° C.), the MIC amounted to 65 µg/mL (≈ 122 µM).

For `CC1(C)[C@H](C(=O)O[C@H](C#N)c2cccc(Oc3ccccc3)c2)[C@@H]1/C=C(\Cl)C(F)(F)F` (racemic) [λ-cyhalothrin], the solubility in water in series [1] was 0.005 µg/mL (≈ 0.0111 µM).

For the compound `CCCC1COC(Cn2cncn2)(c2ccc(Cl)cc2Cl)O1` (stereo not shown) [Propiconazole, 1-(2-(2,4-dichlorophenyl)-4-propyl-1-1,3-dioxolan-2-ylmethyl)-1H-1,2,4-tri azole], the MIC with Candida albicans (CA) (dissolved in a water/propylene glycol cosolvent mixture) turned out to be 91.6 µg/mL (≈ 268 µM). The solubility in water entry in series [1] was “around 100 mg/L”.
